Test results reported in ChEMBL document CHEMBL4673289, “Design, synthesis and biological evaluation of imidazolopyridone derivatives as novel BRD4 inhibitors” (Bioorg Med Chem, 2021).
Calls of active or inactive are those of the source. The calls are words filed in the database; no cut-off is given here.

Key:
BXPC-3 [1] = test: Induction of apoptosis in human BXPC-3 cells assessed as late apoptotic cells at 16 uM measured after 48 hrs by AnnexinV/propidium iodide staining based flow cytometry (reference value: 1.02 %); assay type: functional
BXPC-3 [2] = test: Inhibition of BRD4 protein expression in human BXPC-3 cells at 4 to 16 uM measured after 48 hrs by Western blot analysis; assay type: functional, cell-based; conditions: dose 4-16 µM
[3] = Toxicity in BALB/c mouse allografted with mouse Panc02 cells assessed as effect on body weight at 50 mg/kg, ip administered every day measured after 19 days; assay type: organism-based; conditions: in vivo, 456 h, time 19 day
BXPC-3 [4] = test: Induction of apoptosis in human BXPC-3 cells assessed as early apoptotic cells at 4 uM measured after 48 hrs by AnnexinV/propidium iodide staining based flow cytometry (reference value: 1.02 %); assay type: functional
BXPC-3 [5] = test: Induction of apoptosis in human BXPC-3 cells assessed as early apoptotic cells at 8 uM measured after 48 hrs by AnnexinV/propidium iodide staining based flow cytometry (reference value: 1.02 %); assay type: functional
BXPC-3 [6] = test: Cell cycle arrest in human BXPC-3 cells assessed as accumulation at G0/G1 phase measured after 48 hrs by AnnexinV-FITC/propidium iodide staining based flow cytometry; assay type: functional; conditions: dose 4-16 µM
Panc02 [7] = test: Induction of apoptosis in mouse Panc02 cells allografted in BALB/c mouse assessed as condensed chromatin at 50 mg/kg, ip administered every day measured after 20 days by hematoxylin and eosin staining based assay; assay type: functional, organism-based; conditions: time 20.0 day
Panc02 [8] = test: Antitumor activity against mouse Panc02 allografted in BALB/c mouse assessed as reduction in tumor weight at 50 mg/kg, ip administered every day for 20 days in combination with gemcitabine at 100 mg/kg relative to control; assay type: functional; conditions: 480 h, time 20 day, read-out: TGI
BXPC-3 [9] = test: Cell cycle arrest in human BXPC-3 cells assessed as acumulation at G0/G1 phase by measuring downregulation of CyclinA2 at 4 to 16 uM measured after 48 hrs by Western blot analysis; assay type: functional, cell-based; conditions: dose 4-16 µM
SMMC-7721 = test: Antiproliferative activity against human SMMC-7721 cells assessed as cell growth inhibition at 2 uM measured after 48 to 72 hrs by MTT assay relative to control; assay type: functional; conditions: time 48-72 hrs, read-out: GI
BXPC-3 [10] = test: Cell cycle arrest in human BXPC-3 cells assessed as acumulation at G0/G1 phase by measuring upregulation of p27 at 4 to 16 uM measured after 48 hrs by Western blot analysis; assay type: functional, cell-based; conditions: dose 4-16 µM
Mus musculus = test: Upregulation of caspase 3 in BALB/c mouse allografted with mouse Panc02 cells […] at 50 mg/kg, ip administered every day measured after 20 days by immunohistochemical analysis; assay type: functional, organism-based; conditions: time 20.0 day
BXPC-3 [11] = test: Induction of apoptotic cell death in human BXPC-3 cells at 4 to 16 uM measured after 48 hrs by Live/Dead dye based inverted fluorescence microscopic analysis; assay type: functional; conditions: dose 4-16 µM

CCS(=O)(=O)Nc1ccc(Oc2ccccc2F)c(-c2cn(C)c(=O)c3cncn23)c1
Activity (BXPC-3 [1]): 19.21% | inhibition (BXPC-3 [2]): Active | Activity [3]: Non-Toxic | Activity (BXPC-3 [4]): 1.46% | Activity (BXPC-3 [5]): 1.61% | Activity (BXPC-3 [6]): Dose-dependent effect | Activity (Panc02 [7]): Active | inhibition in vivo at 50 mg/kg (Panc02 [8]): 85% | Activity (BXPC-3 [9]): Active | inhibition of growth at 2 µM (SMMC-7721): 15.1% | Activity (BXPC-3 [10]): Active | Activity (Mus musculus): Active | Activity (BXPC-3 [11]): Active
